Results on 100 compounds are retold here after ChEMBL document CHEMBL3507680, “University of Dundee, Gates Library screen for HepG2 cell viability”.

The data set can be described thus: Human HepG2 cell viability assay in 384 well format. Set-up: dose 125 nL, time 70.5 hour; concentration not given beside the values. Format: toxicity, cell-based. Particulars: HepG2 cells, read-out: Inhibition.
Consider `CCCSc1ncc(-c2nccn2CCO)cn1`, for which the cytotoxicity at 70.5 h was -12.8%.

For `CC(C)Oc1ncccc1CNC(=O)Nc1ccccn1`, the cytotoxicity at 70.5 h is 0.773%.

For `CC(C)(C)c1nnc(CN2CCOC(Cn3cccn3)C2)o1` (stereo not given), the cytotoxicity at 70.5 h turned out to be 5.79%.

With `Cc1sc2nc(C(F)(F)F)nc(N3CCN(S(C)(=O)=O)CC3)c2c1C`, the cytotoxicity at 70.5 h is -4.32%.

For `c1cc(CNCC2Cn3nncc3CO2)ccn1` (stereo not given), the cytotoxicity at 70.5 h was -5.93%.

Regarding `Fc1cnc(N2CCCC3(CN(Cc4cccs4)CCO3)C2)nc1` (stereo not given), the cytotoxicity at 70.5 h was 2.35%.

Consider `Cn1nc(C(=O)N2CCCC2)c(F)c1NC(=O)Cc1ccccc1`, for which the cytotoxicity at 70.5 h was 28.2%.

Take `CCOCCN1CCN(c2ccc(C#N)cn2)CC1`: the cytotoxicity at 70.5 h is -9.92%.

As for `O=S(=O)(c1ccccc1)N1CCC2(CCCN2Cc2cccc(Cl)c2)C1` (stereo not given), the cytotoxicity at 70.5 h is -11.2%.

For `Cc1ccc(=O)n(CC2(O)CCN(Cc3cnc(N(C)C)nc3)CC2)n1`, the cytotoxicity at 70.5 h was 17.6%.

Regarding `Cn1cnnc1C1CCCN(C(=O)NCCc2ccccc2F)C1` (stereo not given), the cytotoxicity at 70.5 h is -11.6%.

Consider `CCc1noc(CN(Cc2cccs2)C2CC2)n1`, for which the cytotoxicity at 70.5 h was 0.387%.

With `Cn1nc(-c2ccccc2)cc1[C@H]1CN2CC[C@H]1C[C@@H]2CNS(C)(=O)=O`, the cytotoxicity at 70.5 h is -6.73%.

`CCOc1cccc(CNc2ccccc2C(=O)OC)c1O`: the cytotoxicity at 70.5 h turned out to be 3.64%.

For `CC(=O)N1CCCC1CCc1ccnc(-c2cncnc2)c1` (stereo not given), the cytotoxicity at 70.5 h is -2.53%.

For the compound `CC1(C)CC(=O)N(CC(=O)Nc2ccon2)c2ccccc21`, the cytotoxicity at 70.5 h is -6.95%.

Take `Cc1nc(C2CCCN(C(=O)c3ccco3)C2)no1` (stereo not given): the cytotoxicity at 70.5 h was 24%.

For `CC(C)S(=O)(=O)N1CCC(c2cc3n(n2)[C@@H](C(F)(F)F)C[C@@H](C)N3)CC1`, the cytotoxicity at 70.5 h is -7.62%.

As to `Cc1ocnc1C(=O)N1CCC2(CC1)c1nc[nH]c1CCN2CC(C)C`, the cytotoxicity at 70.5 h was 27.1%.

On to `Cc1cc(C(=O)N2CCCC2Cn2nc(C)cc2C)on1` (stereo not given), for which the cytotoxicity at 70.5 h was determined as 1.85%.

As to `CC(C)Cc1noc(CN(C)C2CCS(=O)(=O)C2)n1` (stereo not given), the cytotoxicity at 70.5 h is -3.8%.

On to `CCN(CC)S(=O)(=O)N1CCCC(c2nccn2Cc2ccncc2)C1` (stereo not given), for which the cytotoxicity at 70.5 h came out at 8.67%.

In the case of `CCCNc1ncc(C2CC(=O)NCc3nc4ccccn4c32)cn1` (stereo not given), the cytotoxicity at 70.5 h was -8.46%.

Turning to `Cc1ccccc1C1(CNc2nnc(C)c(C)c2C#N)CCOCC1`, the cytotoxicity at 70.5 h is -6.42%.

For `CSCc1cc(F)ccc1CNC(=O)N1CCCC(CO)C1` (stereo not given), the cytotoxicity at 70.5 h is -7.73%.

Take `O=C1N(Cc2cccnc2)C[C@H]2CN(C3CCOCC3)CCN12`: the cytotoxicity at 70.5 h is -0.196%.

For `Cc1cc(N(Cc2cccnc2)C2CC2)n2nc(C(F)(F)F)nc2n1`, the cytotoxicity at 70.5 h is 9.82%.

Consider `Cc1nc(CCN(C)C(=O)C2COc3ccccc3C2)no1` (stereo not given), for which the cytotoxicity at 70.5 h came out at 17.3%.

`Cc1ccc(S(=O)(=O)N(CCO)C2CC2)cc1N(C)C`: the cytotoxicity at 70.5 h is 2.04%.

For the compound `CSCC(=O)N1CCC(Oc2cccc(C)c2)CC1`, the cytotoxicity at 70.5 h was -7.4%.

On to `COc1ccc(F)cc1C(C)NC(=O)Cn1ccc(=O)n(C)c1=O` (stereo not given), for which the cytotoxicity at 70.5 h is -6.42%.

On to `COCCc1noc(CN2CC(n3nc(C)cc3C)C2)n1`, for which the cytotoxicity at 70.5 h was 4.95%.

As for `CN1CC(=O)N(c2ccsc2)CC12CCN(S(C)(=O)=O)C2` (stereo not given), the cytotoxicity at 70.5 h was 1.05%.

For `CCC(CO)n1cnc2scc(C)c2c1=O` (stereo not given), the cytotoxicity at 70.5 h is -22.7%.

In the case of `COc1ccc2c(c1)CCN(CCC(=O)NC1CCCCC1)CC2`, the cytotoxicity at 70.5 h is -9.14%.

In the case of `Cc1ccc(C(=O)N2CC(c3cccnc3)C2)cc1N1CCNC1=O`, the cytotoxicity at 70.5 h was -7.03%.

On to `O=C(c1ccccc1F)N1CCC2(CC1)CC(N1CCCC1)CO2` (stereo not given), for which the cytotoxicity at 70.5 h was -7.88%.

Take `COCCCNC(=O)C(C)n1cc(Br)cn1` (stereo not given): the cytotoxicity at 70.5 h was 16.8%.

As for `CCN1CCN(C2CCN(Cc3nc4ccccc4o3)CC2)C1=O`, the cytotoxicity at 70.5 h was -8.04%.

As for `Cn1cc(CNS(=O)(=O)c2cc(F)ccc2F)cn1`, the cytotoxicity at 70.5 h was -6.49%.

For the compound `COc1ccc(-c2noc(Cn3cc(C)cn3)n2)c(OC)c1OC`, the cytotoxicity at 70.5 h was -1.78%.

In the case of `CN(C)Cc1cc(C2CCCCN2S(=O)(=O)c2cccc(Cl)c2)nn1C` (stereo not given), the cytotoxicity at 70.5 h was -3.27%.

For the compound `O=C(CN1C=Nc2ccccc2S1(=O)=O)NCc1ccccc1`, the cytotoxicity at 70.5 h is -9.5%.

For the compound `Cc1nccc(-c2cccc(NCC(=O)N3CCOCC3)c2)n1`, the cytotoxicity at 70.5 h is -4.16%.

In the case of `CC1CN(CC2CCCCC2)CCN1c1ccc2nncn2n1` (stereo not given), the cytotoxicity at 70.5 h is 41.2%.

`COCCCNC(=O)CN(C)C(=O)CN(C)c1ccc(C#N)cn1`: the cytotoxicity at 70.5 h is -7.44%.

On to `Cc1occc1C(=O)NCC1OCCc2cn(C)nc21` (stereo not given), for which the cytotoxicity at 70.5 h is -3.82%.

For the compound `CC(=O)N1CCCC1c1nc(C)c2c(n1)N(Cc1ccccn1)CCC2` (stereo not given), the cytotoxicity at 70.5 h was -8.03%.

With `CCN1C(=O)CC[C@@H]2N(C(=O)CCn3nccc3C)CCCC[C@@]21C`, the cytotoxicity at 70.5 h is -6.96%.

On to `COc1ccc(C2=C(C)C(N3CCc4ccccc4C3)=NS2(=O)=O)cc1`, for which the cytotoxicity at 70.5 h was 48.7%.

With `Cc1ccc(OCCCNC(=O)Cc2nc3ncccn3n2)cc1`, the cytotoxicity at 70.5 h was -13.7%.

As for `Cc1nc(C)n(CC2CCCCN2CC(=O)NC2CCOCC2)n1` (stereo not given), the cytotoxicity at 70.5 h was -5.93%.

In the case of `Cc1cc(C(=O)NCc2cccnc2N2CCCC(O)C2)c(C)o1` (stereo not given), the cytotoxicity at 70.5 h is -8.63%.

Take `Cc1cc(C)c2c(N3CCC(C(=O)N4CCOCC4)CC3)ncnc2n1`: the cytotoxicity at 70.5 h worked out at 20.2%.

`Cc1nn(C)c(C)c1CNCc1ccnc(N2CCOCC2)c1`: the cytotoxicity at 70.5 h turned out to be 31.5%.

Consider `O=C(c1cnccn1)N1CCc2ncc(CN3CCOCC3)n2CC1`, for which the cytotoxicity at 70.5 h is -8.64%.

For `CCO[C@@H]1C[C@H]2CN(Cc3ccc(C)o3)CCN2C1`, the cytotoxicity at 70.5 h was -11.9%.

For `Cc1cnn(CC2CCCN2C(=O)c2nccc3ccccc23)c1` (stereo not given), the cytotoxicity at 70.5 h was -15.9%.

For the compound `CC(C)NC(=O)CNC(=O)OC(C)(C)C`, the cytotoxicity at 70.5 h is -13%.

For the compound `Fc1ccc(OCc2nnc([C@H]3CCN(Cc4ccncc4)C3)o2)cc1`, the cytotoxicity at 70.5 h was -6.85%.

As to `O=S1(=O)COCCN1Cc1ccc(F)c(C(F)(F)F)c1`, the cytotoxicity at 70.5 h is -10.2%.

For `Cc1nc(C)c(CN2CCC(N(C)Cc3nnc(C4CC4)o3)C2)s1` (stereo not given), the cytotoxicity at 70.5 h was -12.3%.

As to `Cc1cc(S(=O)(=O)Nc2cccc(OC(F)F)c2)sc1C(=O)O`, the cytotoxicity at 70.5 h stood at 16.4%.

For `Cc1nc2c(c(C)c1CC(=O)NCc1cccc(C#N)c1)c(=O)[nH]n2C`, the cytotoxicity at 70.5 h was -2.99%.

Take `Cc1cnn(CC2CCCCN2C(=O)c2cccc3c2OCO3)c1` (stereo not given): the cytotoxicity at 70.5 h was -8.6%.

`COCCNC(=O)[C@H]1CN(Cc2scnc2C)C[C@H]2OCC[C@@H]12`: the cytotoxicity at 70.5 h is -3.43%.

As for `CCn1cc(CN2CCCN(C(=O)c3ccccc3OC)CC2)cn1`, the cytotoxicity at 70.5 h was -15.6%.

On to `COCC1CN(CC2CCOCC2)Cc2cn(CC3CCCC3)nc21` (stereo not given), for which the cytotoxicity at 70.5 h is -7.67%.

Regarding `Cc1cc(CN2C[C@@H]3COC[C@]3(CNC(=O)c3ccco3)C2)no1`, the cytotoxicity at 70.5 h was -7.96%.

Turning to `Fc1cccc(Cc2cncc(C3CCCN3C3CCOCC3)n2)c1` (stereo not given), the cytotoxicity at 70.5 h was -5.65%.

In the case of `COCCn1cc(CC(=O)Nc2nc[nH]n2)c2ccccc21`, the cytotoxicity at 70.5 h is -6.37%.

For the compound `CN(Cc1ccncc1)C(CO)c1cccc(Br)c1` (stereo not given), the cytotoxicity at 70.5 h is -21%.

Consider `Cn1ccnc1CN1CCN(Cc2cc(-c3ccccc3)no2)CC1`, for which the cytotoxicity at 70.5 h was -16.7%.

Consider `Cc1cc(Br)c(O)c(C(=O)N2CCC(CN3CCCCCC3)CC2)c1`, for which the cytotoxicity at 70.5 h is -5.82%.

As for `COCCc1noc(CN(C)C2CCCN(c3cccnn3)C2)n1` (stereo not given), the cytotoxicity at 70.5 h turned out to be 22.9%.

Regarding `CCN1CCN(C(=O)COCc2nc(-c3ccncc3)no2)CC1`, the cytotoxicity at 70.5 h was -1.19%.

In the case of `CCN(Cc1ccc(S(C)(=O)=O)cc1)Cc1nc(COC)no1`, the cytotoxicity at 70.5 h was -11.1%.

Turning to `COCCN1CCC(CNC(=O)C2(S(C)(=O)=O)CCCC2)CC1`, the cytotoxicity at 70.5 h was -3.79%.

Turning to `CCN1CCCC1CNC(=O)CCc1cccs1` (stereo not given), the cytotoxicity at 70.5 h is -3.71%.

Consider `O=C(c1ccoc1)N1CC[C@@H]2O[C@@H](COCc3ccncc3)CC[C@@H]21`, for which the cytotoxicity at 70.5 h came to 10.2%.

As for `CN(C(=O)c1ccc(NC(=O)c2cc[nH]n2)cc1)C1CCCCC1`, the cytotoxicity at 70.5 h was -9.38%.

With `COC[C@@H]1CCC[C@@]12CN(Cc1ccco1)CCO2`, the cytotoxicity at 70.5 h was -15.7%.

As for `Cc1ccc(C(=O)N2CCOC(c3ncc(CN(C)C)[nH]3)C2)cc1F` (stereo not given), the cytotoxicity at 70.5 h is -3.52%.

`COCC(O)CNC(=O)c1cnc(-c2ccccc2)nc1O` (stereo not given): the cytotoxicity at 70.5 h is -11.4%.

On to `CC(=O)NCCNC(=O)c1cnc(C(C)(C)C)s1`, for which the cytotoxicity at 70.5 h is -8.27%.

For the compound `Cc1cccc(N2CCCN=C2NC(=O)c2cccc(Cl)c2)c1`, the cytotoxicity at 70.5 h was -9.98%.

Take `CC(=O)N1CCC(NC(=O)c2ccccc2-n2cnnn2)CC1`: the cytotoxicity at 70.5 h is -3.54%.

Regarding `Cc1nn(C)c2c(NCCn3cccn3)ncnc12`, the cytotoxicity at 70.5 h was 5.55%.

As to `CC(C(=O)N1CCCN(Cc2cscn2)CC1)N1CCOCC1` (stereo not given), the cytotoxicity at 70.5 h was -8.05%.

Turning to `O=C(CC1COCCN1)NCCc1nc(-c2ccccn2)no1` (stereo not given), the cytotoxicity at 70.5 h is -6.55%.

Consider `Cc1cccc(C(=O)N2C[C@@H]3CC[C@H](Oc4cccc(F)c4)[C@@H]3C2)n1`, for which the cytotoxicity at 70.5 h is -5.82%.

As to `Cn1cncc1-c1nnc([C@H]2CCN(Cc3ncc[nH]3)C2)o1`, the cytotoxicity at 70.5 h is 2.99%.

As for `CC(C)Oc1ncccc1CNC(=O)c1ccco1`, the cytotoxicity at 70.5 h was found to be 1.27%.

Consider `COc1c(CNCc2ccnc(N3CCCCC3)c2)c(C)nn1C`, for which the cytotoxicity at 70.5 h was 24.3%.

As for `COCCCNC(=O)Cc1cc(-c2ccc(Cl)cc2)on1`, the cytotoxicity at 70.5 h was found to be 3.59%.

For `NC(c1ccc(F)cc1)c1cccs1` (stereo not given), the cytotoxicity at 70.5 h is 6.42%.

Regarding `CN(CC(=O)NCCc1cc2ccccc2o1)S(C)(=O)=O`, the cytotoxicity at 70.5 h amounted to 13.9%.

Consider `Cc1cc(CC(=O)N2CCN(C)[C@@H]3CS(=O)(=O)C[C@@H]32)ccc1F`, for which the cytotoxicity at 70.5 h was -4.31%.

Regarding `O=C(O)C1CCCN(c2nc3c(-c4ccccc4)csc3c(=O)[nH]2)C1` (stereo not given), the cytotoxicity at 70.5 h amounted to 0.25%.

For the compound `Clc1ccc(CN2CCN(Cn3nccc3-c3cccnc3)CC2)s1`, the cytotoxicity at 70.5 h was 6.58%.
